From US10470993B2, “Tooth remineralization compositions and methods” (priority 2013, dated 2019)

Tested on: S. mutans
Assay type: cell-based
Experimental: Chitosan is a known antimicrobial. The antimicrobial activities of chitosans were determined with XTT assay based on the measurement of bacterial metabolic activities. The bacteria include S. sanguis, S. fecalis, and S. mutans. […] The metabolic activity and viability of S. mutans was decreased with the increase of the molecular weight of chitosan from 1K to 10K, as shown in FIG. 3. […] The relative viability of S. mutans treated with chitosan 10K was only about 10% as compared to the control. […] The chitosan with molecular weight of 10K reached the greatest inhibition effect against S. mutans in our XTT assay.
The antimicrobial activity of chitosan 10K was tested on three different oral bacteria which are major bacteria responsible for the occurrence of dental caries. […] The antimicrobial effects are concentration dependent and increased with increased chitosan concentration.

| Substance | relative viability of S. mutans as compared to the control |
| --- | --- |
| chitosan [chitosan 5K] | 55% |
| chitosan [chitosan 10K] | about 10% |
